Results from patent publication US20100285141A1, “COMPOSITIONS AND METHODS FOR ENHANCING THE ACTIVITY OF PODOPHYLLOTOXIN” (DO-COOP TECHNOLOGIES LTD., priority 2008, published 2010).

Experiments:
[1] = tested on: PC3 prostate cancer cells; assay: Etoposide in Neowater or deionized water, surviving cells by XTT dye uptake, PC3; type: cell-based, human; settings: PC3, 24 hours incubation, FIG. 1B
Source text: (§1) Two human prostate cancer cell lines were examined—LnCap and PC3.

[2] = tested on: LnCap prostate cancer cells; assay: Etoposide in Neowater or deionized water, surviving cells by XTT dye uptake, LnCap; type: cell-based, human; settings: 24 hours incubation, FIG. 1A
Source text: as §1

COc1cc([C@@H]2c3cc4c(cc3[C@@H](O[C@@H]3O[C@@H]5CO[C@@H](C)O[C@H]5[C@H](O)[C@H]3O)[C@H]3COC(=O)[C@H]23)OCO4)cc(OC)c1O [etoposide, Etoposide]
proliferation of cancer cells (cell growth) [1]: dose-dependent decrease
proliferation of cancer cells (cell growth) [2]: dose-dependent decrease
